According to patent US10233195B2, “Anti-fibrotic pyridinones” (InterMune, Inc., priority 2014, dated 2019):
pEC50: −log10 of the molar value.

Tested on: TGF-b induced Endothelin-1 production
Assay: ET-1 assay: inhibitory effect on TGF-b induced endothelin-1 production
Assay type: cell-based
Details: Homo sapiens, Fibroblast; fibroblasts, stimulant (TGFb, serum, LPA etc), ET-1 in media by ELISA, 4-parameter fit
Protocol: Assay of Inhibitory Effect on TGF-b Induced Endothelin-1 Production
Fibroblasts (primary human lung and dermal, HFL-1, 3T3 etc) are seeded in 96-well plates at ˜15000 cells/well and serum starved for 0-48 hours. After media exchange, compounds serially diluted in DMSO are added to the cells. After a brief incubation of ˜30 min, stimulants (TGFb, serum, LPA etc) are added followed by further incubation for 16-48 hours. Media is then harvested and stored frozen in plate format for later endothelin-1 (ET-1) determination by ELISA. Toxicity measurements are made using the ATPlite kit (Perkin-Elmer). ET-1 is quantified using an ELISA kit (R&D Systems). The amount of ET-1 produced in the assay wells are back-calculated using the ELISA standard. The ability of a compound to inhibit ET-1 production is typically analyzed by fitting dose-response curves to a 4-parameter logistic function to obtain an EC50 value. A measure of cytotoxicity (CC50) is likewise reported from the same experiment using the ATPlite data.
Compounds of some embodiments were prepared according to synthetic methods described herein and assay data obtained for EC50 against ET-1. The assay data obtained is presented in Table 2, in which A=less than 50 μM, B=greater than or equal to 50 μM and less than or equal to 200 μM; and C=greater than 200 μM.

| Compound | pEC50 |
| --- | --- |
| CC(C)c1cc(=O)n(-c2ccc(OC(F)(F)F)cc2)cc1-c1ccc(F)cc1 [Compound 200] | 3.70 to 4.30 |
| O=c1cc(C(F)(F)F)c(-c2ccc(F)cc2)cn1-c1ccc(OC(F)(F)F)cc1 [Compound 205] | 3.70 to 4.30 |
| Cc1cc(=O)n(-c2ccc(OC(F)(F)F)cc2)cc1-c1ccc2c(c1)OC(C)(C)O2 [Compound 211] | < 3.70 |
| Cc1cc(=O)n(-c2ccc(F)cc2)cc1-c1ccc(OC(F)(F)F)cc1 [Compound 212] | 3.70 to 4.30 |
| Cc1cc(=O)n(-c2ccc(OC(F)(F)F)cc2)cc1-c1ccc(F)cc1 [Compound 213] | < 3.70 |
| Cc1cc(=O)n(-c2ccccc2C)cc1-c1ccc(F)cc1 [Compound 214] | 3.70 to 4.30 |
| CC(=O)Nc1cccc(-n2cc(-c3cn[nH]c3)c(C)cc2=O)c1 [Compound 217] | < 3.70 |
| COc1cc(-n2cc(-c3cn[nH]c3)c(C)cc2=O)cc(OC)c1OC [Compound 220] | < 3.70 |
| COc1cc(-n2cc(-c3cnn(C)c3)c(C)cc2=O)cc(OC)c1OC [Compound 221] | < 3.70 |
| Cc1cc(=O)n(-c2ccc3c(c2)OCCO3)cc1-c1cnn(C)c1 [Compound 222] | < 3.70 |
| Cc1cc(=O)n(-c2ccc3c(c2)OCO3)cc1-c1cnn(C)c1 [Compound 223] | < 3.70 |
| Cc1cc(=O)n(-c2ccc3ocnc3c2)cc1-c1cnn(C)c1 [Compound 224] | < 3.70 |
| Cc1cc(=O)n(-c2ccc3scnc3c2)cc1-c1cnn(C)c1 [Compound 225] | < 3.70 |
| Cc1cc(=O)n(-c2cccc(C(F)(F)F)c2)cc1-c1cnn(C)c1 [Compound 226] | < 3.70 |
| Cc1cc(=O)n(-c2cccc(OC(F)(F)F)c2)cc1-c1cnn(C)c1 [Compound 227] | < 3.70 |
| Cc1cc(=O)n(-c2ccc(C(F)(F)F)cc2)cc1-c1cnn(C)c1 [Compound 228] | 3.70 to 4.30 |
| Cc1cc(=O)n(-c2ccccc2F)cc1-c1cnn(C)c1 [Compound 230] | < 3.70 |
| Cc1cc(=O)n(-c2cccc3c2OCCO3)cc1-c1cnn(C)c1 [Compound 231] | 3.70 to 4.30 |
| Cc1cc(=O)n(-c2cccc3c2OCO3)cc1-c1cnn(C)c1 [Compound 232] | < 3.70 |
| Cc1cc(=O)n(-c2ccc3[nH]cnc3c2)cc1-c1cnn(C)c1 [Compound 233] | < 3.70 |
| CCc1cc(=O)n(-c2ccc(OC(F)(F)F)cc2)cc1-c1cnn(C)c1 [Compound 235] | 3.70 to 4.30 |
| CC(C)c1cc(=O)n(-c2ccc(OC(F)(F)F)cc2)cc1-c1cnn(C)c1 [Compound 236] | 3.70 to 4.30 |
| Cn1cc(-c2cn(-c3ccc(OC(F)(F)F)cc3)c(=O)cc2C(F)(F)F)cn1 [Compound 240] | < 3.70 |

| Compound | pEC50 |
| --- | --- |
| Cc1cc(=O)n(-c2ccc(OC(F)(F)F)cc2)cc1-c1cccnc1 [Compound 241] | < 3.70 |
| Cc1cc(=O)n(-c2ccc(OC(F)(F)F)cc2)cc1-c1ccncc1 [Compound 242] | < 3.70 |
| Cc1cc(=O)n(-c2ccc(OC(F)(F)F)cc2)cc1-n1ccnc1 [Compound 244] | < 3.70 |
| Cc1cc(=O)n(-c2ccc(OC(F)(F)F)cc2)cc1-c1ccnn1C [Compound 247] | < 3.70 |
| Cc1cc(=O)n(-c2ccc(OC(F)(F)F)cc2)cc1-c1cnc2nccn2c1 [Compound 248] | < 3.70 |
| Cc1cc(=O)n(-c2ccc(OC(F)(F)F)cc2)cc1-c1ccc2cn(C)nc2c1 [Compound 250] | 3.70 to 4.30 |
| Cc1cc(=O)n(-c2ccc(OC(F)(F)F)cc2)cc1-c1nn[nH]n1 [Compound 253] | < 3.70 |
| Cc1cc(=O)n(-c2ccc(OC(F)(F)F)cc2)cc1-c1ccc2c(ccn2C)c1 [Compound 255] | < 3.70 |
| Cc1cc(=O)n(-c2ccc(OC(F)(F)F)cc2)cc1-c1nnn(C)n1 [Compound 256] | < 3.70 |
| Cc1cc(=O)n(-c2ccc(OC(F)(F)F)cc2)cc1-c1nnnn1C [Compound 257] | < 3.70 |
| Cc1cc(=O)n(-c2ccc(OC(F)(F)F)cc2)cc1-c1cnsc1 [Compound 264] | < 3.70 |
| O=c1ccc(Br)cn1-c1ccc(F)cc1 [Compound 265] | < 3.70 |
| COc1cccc(-n2cc(Br)ccc2=O)c1 [Compound 266] | < 3.70 |
| CC(C)Oc1ccc(-n2cc(Br)ccc2=O)cc1 [Compound 267] | < 3.70 |
| O=c1ccc(Br)cn1-c1cccc(C(F)(F)F)c1 [Compound 268] | < 3.70 |
| O=c1ccc(Br)cn1-c1ccc(Cl)cc1 [Compound 269] | < 3.70 |
| O=c1ccc(Br)cn1-c1ccc(OC(F)(F)F)cc1 [Compound 270] | < 3.70 |
| CC(=O)Nc1cccc(-n2cc(Br)ccc2=O)c1 [Compound 271] | < 3.70 |
| O=c1ccc(Br)cn1-c1cccc(F)c1 [Compound 272] | < 3.70 |
| CCOc1ccc(-n2cc(Br)ccc2=O)c(C)c1 [Compound 273] | < 3.70 |
| O=c1ccc(C(F)(F)F)cn1-c1cccc(F)c1 [Compound 274] | < 3.70 |
| O=c1ccc(C(F)(F)F)cn1-c1ccc(OC(F)(F)F)cc1 [Compound 275] | < 3.70 |
| CC(=O)Nc1cccc(-n2cc(C(F)(F)F)ccc2=O)c1 [Compound 277] | < 3.70 |

| Compound | pEC50 |
| --- | --- |
| O=c1ccc(C(F)(F)F)cn1-c1cncnc1 [Compound 279] | < 3.70 |
| O=c1ccc(C(F)(F)F)cn1-c1ccccc1Cl [Compound 281] | < 3.70 |
| Cc1ccc(=O)n(-c2ccccc2F)c1 [Compound 283] | < 3.70 |
| C#Cc1ccc(=O)n(-c2ccccc2)c1 [Compound 287] | < 3.70 |
| CC(C)Oc1ccc(-n2cc(-c3ccc(F)cc3)ccc2=O)cc1 [Compound 288] | 3.70 to 4.30 |
| O=c1ccc(-c2ccc(F)cc2)cn1-c1cccc(C(F)(F)F)c1 [Compound 289] | 3.70 to 4.30 |
| O=c1ccc(-c2ccc(F)cc2)cn1-c1ccccc1Cl [Compound 291] | < 3.70 |
| O=c1ccc(-c2ccccc2)cn1-c1ccc(F)cc1 [Compound 294] | 3.70 to 4.30 |
| O=c1ccc(-c2ccccc2)cn1-c1cccc(F)c1 [Compound 296] | < 3.70 |
| CCOc1ccc(-n2cc(-c3ccccc3)ccc2=O)c(C)c1 [Compound 298] | 3.70 to 4.30 |
| O=c1ccc(-c2ccccc2)cn1-c1ccncc1 [Compound 299] | < 3.70 |
| O=c1ccc(-c2ccccc2)cn1-c1ccccc1Cl [Compound 302] | 3.70 to 4.30 |
| COc1ccc(-c2ccc(=O)n(-c3ccc(Cl)cc3)c2)cc1 [Compound 303] | 3.70 to 4.30 |
| COc1ccc(-c2ccc(=O)n(-c3cccc(OC)c3)c2)cc1 [Compound 309] | 3.70 to 4.30 |
| COc1ccc(-c2ccc(=O)n(-c3ccccc3Cl)c2)cc1 [Compound 310] | 3.70 to 4.30 |
| COc1ccc(-c2ccc(=O)n(-c3cncnc3)c2)cc1 [Compound 311] | < 3.70 |
| COc1ccc(-c2ccc(=O)n(-c3ccccc3F)c2)cc1 [Compound 312] | < 3.70 |
| O=c1ccc(-c2cccc(Cl)c2)cn1-c1ccccc1 [Compound 313] | 3.70 to 4.30 |
| O=c1ccc(-c2cccc(Cl)c2)cn1-c1ccc(Cl)cc1 [Compound 314] | > 4.30 |
| COc1ccc(-n2cc(-c3cccc(Cl)c3)ccc2=O)cc1 [Compound 315] | > 4.30 |
| O=c1ccc(-c2cccc(Cl)c2)cn1-c1cccc(C(F)(F)F)c1 [Compound 318] | > 4.30 |
| COc1cccc(-n2cc(-c3cccc(Cl)c3)ccc2=O)c1 [Compound 319] | > 4.30 |
| O=c1ccc(-c2cccc(Cl)c2)cn1-c1cccc(F)c1 [Compound 320] | > 4.30 |
